Measurements from US9458101B2 (priority 2009, dated 2016).

Columns and labels:
[1] = system: A549 (Human lung carcinoma); assay: Cytotoxicity testing (MTS) on A549; format: cell-based
Protocol: (§1) Cell lines used were A549 (Human lung carcinoma), HeLa (Human cervical carcinoma), MCF-7 (Human mammary gland adenocarcinoma), CEM (Human T-lymphoblastoid from ALL (Acute lymphoblastic leukemia)), M010B (Human glioma), M006X (Human glioma) and Jurkat (Human T-cell leukemia).
(§2) A series of dilutions were prepared and a wavelength scan of the diluted solution was used to determine the wavelength of maximum absorbance for each compound. Five standardized drug concentrations were scanned at this pre-determined wavelength to obtain an estimate of the compound's extinction coefficient.
(§3) A primary MTS assay was used to test the optimal number of cells for cytotoxicity assays. Cells were trypsinized, counted and introduced into seven lanes of a 96-well plate at different cell numbers (eight replicates per lane). Optimal cell numbers were determined after 72 and 96 hours of growth and were used in subsequent cytotoxicity assays. […] Cell viability was determined using the Cell Titer 96 AQueous One Solution Cell Proliferation Assay (Promega, U.S.A.).
(§4) Fits were performed using a dose-response model ideal for data showing an initial response plateau, a transition region, and a final response plateau.
(§5) [formula] […] Itop is the response obtained at very low/no drug concentration. The data and all parameters were normalized to Itop−Ibot, a measure of the maximum effect of the drug.

[2] = system: A549, HeLa, MCF-7 and CEM cell lines; assay: Cytotoxicity, mean over A549, HeLa, MCF-7 and CEM cell lines; details: for IC50 [log10 M] (mean logIC50): mean over A549, HeLa, MCF-7 and CEM cell lines; for cytotoxicity compared with colchicine: cytotoxicity assays; for average IC50 values compared with colchicine: average values of Table 3
Source text: as §1, §3, §5
Cytotoxicity screening was performed on a number of cell lines based on the cancer of origin and differing morphologies.

[3] = system: CEM (Human T-lymphoblastoid from ALL); assay: Cytotoxicity testing (MTS) on CEM; format: cell-based
Protocol: as §1, §2, §3, §4, §5

M006X (Human glioma) = assay: Cytotoxicity testing (MTS) on M006X; format: cell-based
Protocol: as §1, §2, §3, §4, §5

[4] = system: HeLa (Human cervical carcinoma); assay: Cytotoxicity testing (MTS) on HeLa; format: cell-based
Protocol: as §1, §2, §3, §4, §5

[5] = system: MCF-7 (Human mammary gland adenocarcinoma); assay: Cytotoxicity testing (MTS) on MCF-7; format: cell-based
Protocol: as §1, §2, §3, §4, §5

M010B (Human glioma) = assay: Cytotoxicity testing (MTS) on M010B; format: cell-based
Protocol: as §1, §2, §3, §4, §5

Compound	logIC50 [1]	IC50 [log10 M] (mean logIC50) [2]	logIC50 [3]	logIC50 (M006X (Human glioma))	logIC50 [4]	logIC50 [5]	logIC50 (M010B (Human glioma))	Fraction of cells that survive at the highest drug concentrations (Ibot) [1]	Fraction of cells that survive at the highest drug concentrations (Ibot) [3]	Fraction of cells that survive at the highest drug concentrations (Ibot) (M006X (Human glioma))	Fraction of cells that survive at the highest drug concentrations (Ibot) [4]	Fraction of cells that survive at the highest drug concentrations (Ibot) [5]	Fraction of cells that survive at the highest drug concentrations (Ibot) (M010B (Human glioma))	cytotoxicity compared with colchicine [2]	average IC50 values compared with colchicine [2]	IC50 ([2]; cytotoxicity experiments, most potent derivative)
N-[(7S)-2,3,10-trimethoxy-9-oxo-1-(((3-methoxy)propan)oxy)(3-methoxy))-5,6,7,9-tetrahydrobenzo[α]heptalen-7-yl]acetamide [Compound 11]	−6.47 ± 0.12 log10 M	−7.05 ± 0.09 log10 M	−7.45 ± 0.09 log10 M	−7.40 ± 0.09 log10 M	−7.23 ± 0.09 log10 M	−7.05 ± 0.04 log10 M	−6.74 ± 0.08 log10 M	–	–	–	–	–	–	–	–	–
COc1cc2c(c(OCc3ccccc3)c1OC)-c1ccc(OC)c(=O)cc1[C@@H](NC(C)=O)CC2 [Compound 10, N-[(7S)-2,3,10-trimethoxy-9-oxo-1-((phenyl)methoxy)-5,6,7,9-tetrahydrobenzo [α]heptalen-7-yl]acetamide]	−5.77 ± 0.10 log10 M	−6.16 ± 0.08 log10 M	−6.45 ± 0.09 log10 M	−6.42 ± 0.09 log10 M	−6.17 ± 0.07 log10 M	−6.27 ± 0.08 log10 M	−5.66 ± 0.10 log10 M	0.256 ± 0.032	0.012 ± 0.022	0.088 ± 0.022	0.080 ± 0.026	0.387 ± 0.016	0.250 ± 0.031	–	–	–
COc1cc2c(c(OC)c1OC)-c1ccc(OC)c(=O)cc1[C@@H](NC(C)=O)CC2 [Colchicine, N-[(7S)-1,2,3,10-tetramethoxy-9-oxo-5,6,7,9-tetrahydrobenzo[α]heptalen-7-yl]acetamide, reference compound]	–	–	–	–	–	–	–	0.118 ± 0.042	0.016 ± 0.021	0.026 ± 0.005	0.061 ± 0.048	0.377 ± 0.010	0.107 ± 0.017	–	–	–
C=CCOc1c(OC)c(OC)cc2c1-c1ccc(OC)c(=O)cc1[C@@H](NC(C)=O)CC2 [Compound 9]	−6.66 ± 0.10 log10 M	−7.15 ± 0.08 log10 M	−7.46 ± 0.08 log10 M	−7.47 ± 0.09 log10 M	−7.35 ± 0.09 log10 M	−7.10 ± 0.05 log10 M	−6.74 ± 0.08 log10 M	0.227 ± 0.021	−0.004 ± 0.015	0.037 ± 0.015	0.082 ± 0.018	0.484 ± 0.009	0.299 ± 0.017	moderately better than colchicine	–	–
COc1cc2c(c(OCc3cccc(Cl)c3)c1OC)-c1ccc(OC)c(=O)cc1[C@@H](NC(C)=O)CC2 [Compound 12, N-[(7S)-2,3,10-trimethoxy-9-oxo-1-((phenyl(3-chloro))methoxy)-5,6,7,9-tetrahydrobenzo[α]heptalen-7-yl]acetamide]	−6.00 ± 0.04 log10 M	−6.30 ± 0.10 log10 M	−6.46 ± 0.09 log10 M	−6.47 ± 0.12 log10 M	−6.43 ± 0.15 log10 M	−6.30 ± 0.12 log10 M	−6.39 ± 0.11 log10 M	0.245 ± 0.024	−0.015 ± 0.021	0.051 ± 0.027	0.040 ± 0.038	0.390 ± 0.025	0.328 ± 0.022	–	–	–
CCOc1cc2c(c(OC)c1OC)-c1ccc(SC)c(=O)cc1[C@@H](NC(C)=O)CC2 [Compound 42, N-[(7S)-3-ethoxy-1,2-dimethoxy-10-methylsulfanyl-9-oxo-5,6,7,9-tetrahydrobenzo[α]heptalen-7-yl]acetamide]	−8.37 ± 0.10 log10 M	−8.44 ± 0.11 log10 M	−8.64 ± 0.09 log10 M	−8.83 ± 0.08 log10 M	−8.47 ± 0.14 log10 M	−8.28 ± 0.10 log10 M	−8.27 ± 0.12 log10 M	0.256 ± 0.015	0.026 ± 0.018	0.184 ± 0.021	0.046 ± 0.026	0.538 ± 0.010	0.327 ± 0.023	consistently the most effective	stronger than colchicine	–
COc1cc2c(c(OC(=O)C(C)C)c1OC)-c1ccc(OC)c(=O)cc1[C@@H](NC(C)=O)CC2 [Compound 5, N-[(7S)-1-(((methyl)ethyl)carbonyloxy)-2,3,10-trimethoxy-9-oxo-5,6,7,9-tetrahydrobenzo [α]heptalen-7-yl]acetamide]	−5.09 ± 0.06 log10 M	−5.33 ± 0.10 log10 M	−5.51 ± 0.13 log10 M	−6.12 ± 0.04 log10 M	−5.46 ± 0.13 log10 M	−5.25 ± 0.08 log10 M	−5.22 ± 0.06 log10 M	0.265 ± 0.043	−0.003 ± 0.048	0.031 ± 0.018	0.025 ± 0.044	0.451 ± 0.025	0.258 ± 0.024	–	–	–
CCCOc1c(OC)c(OC)cc2c1-c1ccc(OC)c(=O)cc1[C@@H](NC(C)=O)CC2 [Compound 8, N-[(7S)-2,3,10-trimethoxy-9-oxo-1-(propanoxy)-5,6,7,9-tetrahydrobenzo[α]heptalen-7-yl]acetamide]	−7.80 ± 0.07 log10 M	−7.86 ± 0.10 log10 M	−8.48 ± 0.10 log10 M	−7.98 ± 0.03 log10 M	−7.68 ± 0.09 log10 M	−7.50 ± 0.12 log10 M	−7.49 ± 0.13 log10 M	0.246 ± 0.013	0.000 ± 0.013	0.072 ± 0.014	0.044 ± 0.020	0.433 ± 0.013	0.181 ± 0.020	moderately better than colchicine	–	–
CCC(=O)Oc1c(OC)c(OC)cc2c1-c1ccc(OC)c(=O)cc1[C@@H](NC(C)=O)CC2 [Compound 4, N-[(7S)-1-((ethyl)carbonyloxy)-2,3,10-trimethoxy-9-oxo-5,6,7,9-tetrahydrobenzo[α]heptalen-7-yl]cetamide]	−5.07 ± 0.04 log10 M	−5.27 ± 0.09 log10 M	−5.39 ± 0.11 log10 M	–	−5.41 ± 0.13 log10 M	−5.23 ± 0.07 log10 M	–	0.332 ± 0.028	−0.031 ± 0.049	–	0.058 ± 0.048	0.399 ± 0.021	–	–	–	–
CCCOc1cc2c(c(OC)c1OC)-c1ccc(SC)c(=O)cc1[C@@H](NC(C)=O)CC2 [Compound 43, N-[(7S)-3-propoxy-1,2-dimethoxy-10-methylsulfanyl-9-oxo-5,6,7,9-tetrahydrobenzo[α]heptalen-7-yl]acetamide]	−8.76 ± 0.11 log10 M	−8.67 ± 0.11 log10 M	−8.55 ± 0.09 log10 M	–	−8.66 ± 0.12 log10 M	−8.71 ± 0.10 log10 M	−8.51 ± 0.15 log10 M	0.198 ± 0.024	0.010 ± 0.014	–	0.025 ± 0.025	0.399 ± 0.015	0.214 ± 0.022	consistently the most effective	stronger than colchicine	2.13 ± 0.77 nM
